Experimental findings from publication PMC5917010, “Structural basis for GPR40 allosteric agonism and incretin stimulation” (Nature Communications, 2018) are described below.

pEC50, pIC50, pKi: −log10 of the molar value.

Experiment [1] deals with GPR40 knock-out (KO) mice. Kind of experiment: IPGTT in GPR40 knock-out mice. The class given is in vivo, mouse. The conditions noted are these: high dose of compound 1. As to the method:
Nine to ten week old male ICR mice (Envigo) and GPR40 KO mice (Taconic) were used. The day before an IPGTT (~1600), animals were fasted in clean cages. The following morning (~0800), animals were randomized on fasting glucose and body weight (N = 6 per group). Mice were orally administered a test article or vehicle 60 min prior to an intraperitoneal (IP) injection of glucose (2g/kg). Blood glucose levels were determined by a glucometer from tail bleeds taken at 0, 15, 30, 60, and 120 min after the glucose challenge. An average of two readings were reported at each time point. Also, blood samples were collected into serum tubes at 0, 3, 6, and 15 min post glucose injection for insulin measurement. Serum tubes were centrifuged at 3000g for 5 min and serum transferred into 96-well plates for insulin analysis by a Mesoscale rat/mouse insulin assay.

Another experiment concerns C57Bl/6 mice. Kind of experiment: Incretin secretion assay in C57Bl/6 mice. The conditions noted are these: for plasma PYY level: Fig. 3e; for plasma total GLP-1: wild type C57BL/6 mice. It counts as in vivo, mouse. As to the method:
Nine week old male C57Bl/6 mice (Envigo, Indianapolis) were used. The night before the incretin assay, mice were transferred to clean cages and fasted overnight. On the morning of the assay, the mice were weighed and randomized by block randomization into groups based on body weight (N = 6) so each group had similar mean and standard deviation of body weight. […] Animals were dosed with vehicle or the test article by oral gavage. Group allocations were not blinded from the experimenters who collected the data. The mice were sacrificed at 0.5, 1, 2, 4, or 8 h post the compound treatment. Blood was taken by cardiac puncture into EDTA tubes containing DPPIV inhibitor and aprotinin cocktail after CO2 euthanization. The final DPPIV inhibitor concentration was 50 µM and aprotinin was 250 K IU/mL. Blood samples were centrifuged at 3000×g for 5 min and plasma transferred into 96 well plates. Plasma total GLP-1 and active GIP levels were measured by ELISA assays that were developed in-house. Data were expressed as mean±s.e.m. […] Cook’s distance was also calculated from linear regression. All animals were included in the analysis with their individual Cook’s distance < 1. Significance is denoted at p < 0.05.

The target in another experiment is Mouse GPR40 (Mus musculus, UniProt Q76JU9). Put plainly: Mouse GPR40 b-arrestin. It counts as cell-based.
The next experiment addresses Rat GPR40 (Rattus norvegicus, UniProt Q8K3T4). Kind of experiment: Rat GPR40 b-arrestin. It counts as cell-based.
The target of the next experiment is T1, Mouse GPR120 (Mus musculus, UniProt Q7TMA4).
T1 sequence (Q7TMA4 1-361): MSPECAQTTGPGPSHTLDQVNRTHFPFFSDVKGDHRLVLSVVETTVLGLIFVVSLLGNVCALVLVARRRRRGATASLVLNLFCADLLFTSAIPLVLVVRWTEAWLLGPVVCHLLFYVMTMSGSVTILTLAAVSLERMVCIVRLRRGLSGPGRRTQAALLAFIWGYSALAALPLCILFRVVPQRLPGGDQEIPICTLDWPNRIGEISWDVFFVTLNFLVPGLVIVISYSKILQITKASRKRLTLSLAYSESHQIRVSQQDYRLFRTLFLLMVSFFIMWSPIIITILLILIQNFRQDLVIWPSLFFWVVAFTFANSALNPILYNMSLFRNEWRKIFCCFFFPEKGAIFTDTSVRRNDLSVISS
Put plainly: Mouse GPR120 b-arrestin. It counts as cell-based. The conditions noted are these: Supplementary Table 1.

The target in the next experiment is T2, human PPARalpha (Homo sapiens, UniProt Q07869).
T2 sequence (Q07869 1-468): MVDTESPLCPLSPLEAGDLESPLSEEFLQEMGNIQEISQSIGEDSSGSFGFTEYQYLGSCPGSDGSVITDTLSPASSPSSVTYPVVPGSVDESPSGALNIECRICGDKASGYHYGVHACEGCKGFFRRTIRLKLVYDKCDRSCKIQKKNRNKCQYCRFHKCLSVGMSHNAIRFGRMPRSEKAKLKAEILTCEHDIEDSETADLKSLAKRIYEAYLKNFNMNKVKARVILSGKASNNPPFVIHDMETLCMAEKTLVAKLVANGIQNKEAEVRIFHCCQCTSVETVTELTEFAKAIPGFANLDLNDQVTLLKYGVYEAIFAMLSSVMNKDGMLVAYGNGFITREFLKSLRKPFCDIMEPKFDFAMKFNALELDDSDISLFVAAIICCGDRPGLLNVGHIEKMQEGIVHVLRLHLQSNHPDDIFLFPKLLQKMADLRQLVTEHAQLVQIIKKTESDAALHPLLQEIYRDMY
Kind of experiment: human PPARalpha binding. The conditions noted are these: Supplementary Table 1.

The target of another experiment is T3, human PPARgama (Homo sapiens, UniProt P37231).
T3 sequence (P37231 1-505): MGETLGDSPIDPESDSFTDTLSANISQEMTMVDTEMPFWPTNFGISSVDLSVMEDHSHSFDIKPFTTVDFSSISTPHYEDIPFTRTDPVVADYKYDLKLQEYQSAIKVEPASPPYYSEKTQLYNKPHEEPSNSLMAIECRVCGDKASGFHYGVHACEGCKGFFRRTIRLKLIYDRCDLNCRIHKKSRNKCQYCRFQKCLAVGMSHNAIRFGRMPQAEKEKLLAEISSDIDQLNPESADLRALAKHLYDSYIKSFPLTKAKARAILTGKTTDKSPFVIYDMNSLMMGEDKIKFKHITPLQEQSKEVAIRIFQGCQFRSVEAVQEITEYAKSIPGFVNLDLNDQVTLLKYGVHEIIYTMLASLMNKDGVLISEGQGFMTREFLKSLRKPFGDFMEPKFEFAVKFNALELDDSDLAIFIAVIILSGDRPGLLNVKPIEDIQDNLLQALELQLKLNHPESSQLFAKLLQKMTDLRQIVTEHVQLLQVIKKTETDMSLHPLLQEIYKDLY
Kind of experiment: human PPARgamma binding. The conditions noted are these: Supplementary Table 1.

Another experiment concerns the target hM1 (Homo sapiens, UniProt P11229). Put plainly: hM1 binding. The conditions noted are these: read-out: hM1 binding Rel IC50.
A further experiment addresses GPR40 Y44F (Homo sapiens, UniProt O14842, Y44F). Kind of experiment: cAMP accumulation assay, Y44F mutant. Background: cAMP levels reflect the balance of adenylyl cyclase and phosphodiesterase activity.
A further experiment deals with GPR40 Y114F (Homo sapiens, UniProt O14842, Y114F). Kind of experiment: cAMP accumulation assay, Y114F mutant.
Chain of GPR40 Y114F (O14842 whole entry Y114F): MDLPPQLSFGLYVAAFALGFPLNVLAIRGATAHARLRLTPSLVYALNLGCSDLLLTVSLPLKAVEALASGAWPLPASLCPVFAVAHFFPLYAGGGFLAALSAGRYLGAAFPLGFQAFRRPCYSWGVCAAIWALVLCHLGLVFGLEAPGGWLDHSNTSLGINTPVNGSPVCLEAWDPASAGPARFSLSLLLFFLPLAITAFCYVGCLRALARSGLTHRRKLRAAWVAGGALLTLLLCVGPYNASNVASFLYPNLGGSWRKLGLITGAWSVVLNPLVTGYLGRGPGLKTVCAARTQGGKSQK

Chain of Rat GPR40 (Q8K3T4 whole entry): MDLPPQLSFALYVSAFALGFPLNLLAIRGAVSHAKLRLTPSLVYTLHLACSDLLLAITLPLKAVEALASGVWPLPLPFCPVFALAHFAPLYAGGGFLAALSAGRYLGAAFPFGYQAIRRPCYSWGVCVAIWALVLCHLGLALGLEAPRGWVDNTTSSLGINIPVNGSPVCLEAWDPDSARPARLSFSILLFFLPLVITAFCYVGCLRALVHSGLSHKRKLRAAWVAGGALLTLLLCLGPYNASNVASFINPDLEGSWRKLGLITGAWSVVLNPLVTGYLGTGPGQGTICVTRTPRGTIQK
Chain of Mouse GPR40 (Q76JU9 whole entry): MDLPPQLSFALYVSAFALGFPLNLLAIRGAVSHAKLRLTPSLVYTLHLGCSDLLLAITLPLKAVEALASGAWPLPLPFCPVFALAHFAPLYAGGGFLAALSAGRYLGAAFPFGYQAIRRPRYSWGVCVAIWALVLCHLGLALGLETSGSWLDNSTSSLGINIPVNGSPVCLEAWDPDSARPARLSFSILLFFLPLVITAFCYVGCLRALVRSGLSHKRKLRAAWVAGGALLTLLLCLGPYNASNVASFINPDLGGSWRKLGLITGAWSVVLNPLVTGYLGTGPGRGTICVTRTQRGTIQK
Chain of hM1 (P11229 whole entry): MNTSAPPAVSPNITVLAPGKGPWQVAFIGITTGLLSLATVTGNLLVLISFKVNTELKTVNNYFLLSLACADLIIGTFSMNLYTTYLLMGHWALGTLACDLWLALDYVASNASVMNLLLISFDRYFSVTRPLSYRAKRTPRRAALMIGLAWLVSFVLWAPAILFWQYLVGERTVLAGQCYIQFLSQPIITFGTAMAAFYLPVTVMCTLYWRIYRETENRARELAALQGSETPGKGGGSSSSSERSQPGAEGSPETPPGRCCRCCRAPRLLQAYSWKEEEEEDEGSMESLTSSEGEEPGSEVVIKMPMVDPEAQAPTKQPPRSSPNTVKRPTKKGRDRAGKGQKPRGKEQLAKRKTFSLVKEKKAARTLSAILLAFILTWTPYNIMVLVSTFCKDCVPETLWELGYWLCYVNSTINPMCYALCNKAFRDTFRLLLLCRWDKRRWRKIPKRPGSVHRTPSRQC
Chain of GPR40 Y44F (O14842 whole entry Y44F): as the sequence (O14842 whole entry Y114F) above, with Y44F, F114Y counted along it

Broadly, the pEC50 is −log10 of the EC50, conventionally taken in molar units. The Emax is the maximal effect, on the per cent scale that the assay sets. A word on the pKi: it is the Ki on a negative log10 scale, so that one unit is a factor of ten. The low end stands for a large Ki, the high end for a small Ki. By pIC50 is commonly meant the IC50 on a negative log10 scale, so that one unit is a factor of ten. For `COc1ccc(C(=O)N(CC(C)(C)C)c2cccc(C)n2)c(N2CCC(c3cc4ccc([C@@H](CC(=O)O)C5CC5)cc4o3)CC2)c1` [compound 1], in [1], the “glucose lowering in IPGTT, GPR40 KO” value is recorded as “not observed”. In addition, in experiment [1], the “insulin secretion in IPGTT, GPR40 KO” value is on record as “not observed”. Moreover, the “plasma PYY level” value in the experiment with C57Bl/6 mice is given as “no effect on plasma PYY level”. Besides, the “plasma active GIP concentrations” value in the experiment with C57Bl/6 mice (oral gavage, up to 8 h) is on record as “significantly increases plasma active GIP concentrations up to 8 h”. The “plasma total GLP-1 concentrations” value in the experiment on C57Bl/6 mice (oral gavage, up to 8 h) was “significantly increases plasma total GLP-1 concentrations up to 8 h”. For the same molecule, the “plasma total GLP-1” value in the experiment on C57Bl/6 mice (oral treatment at 10 mg/kg, 4-hour window) is listed as “sustains an elevated level of plasma total GLP-1”. Moreover, the negative logarithm of the EC50 (pEC50) at Mouse GPR40 is 8.80; at Rat GPR40, 8.68; on Mouse GPR120, less than 4.30; on GPR40 Y44F, less than 4.52; on GPR40 Y114F it was 4.96. Besides, the Emax was 146% on Mouse GPR40 and 163% on Rat GPR40. The negative-log Ki (pKi) at human PPARalpha and on human PPARgama was less than 5.00 throughout. Also, the negative logarithm of the IC50 (pIC50) on hM1 is less than 5.00.

Consider `Cc1cc(OCCCS(C)(=O)=O)cc(C)c1-c1cccc(COc2ccc3c(c2)OC[C@H]3CC(=O)O)c1` [TAK-875], for which, in the experiment on C57Bl/6 mice, the “plasma PYY level” value is “no effect on plasma PYY level”. In the experiment on C57Bl/6 mice (oral treatment at 30 mg/kg), the “plasma total GLP-1” value was “no effect on plasma total GLP-1”. Besides, the pEC50 on Mouse GPR40 was 8.07; on Rat GPR40 it was 7.44; on Mouse GPR120, less than 4.30. Also, the negative-log Ki (pKi) at human PPARalpha and on human PPARgama was less than 5.00 each time.
